Source: a melting point compilation (Tetko et al.; mined from patent text by program, amines drawn as free bases though some values may be those of a salt)

First: CCc1cccc2c(C=O)cc(Cl)c(O)c12
Second: Nc1c(Cl)cccc1CO
The melting point of the first is higher: 139 to 142 °C for the first, 56 to 68 °C for the second.

First: Cc1cc(=O)n2cccc(OCc3ccccc3Br)c2n1
Second: Cc1oc(-c2ccccc2)nc1COc1ccc(COc2ccc(O)cc2CC(=O)O)cc1
The melting point of the first is lower: 144 to 146 °C for the first, 194 to 195 °C for the second.

Compared with `Cc1noc(-c2cccc(CN3CCN(c4ccc(N)cc4)CC3)c2)n1`, `Nc1ccc(-c2cn(C3CCN(Cc4ccccc4)CC3)c3ncnc(N)c23)cc1F` is higher in melting point: 106 to 108 °C for the first, 141 to 142 °C for the second.

Compared with `COc1cc2c(cc1Nc1ncc(Cl)c(Nc3cc(C#N)ccc3OC)n1)CCN(CC(=O)N(C)C)CC2`, `CCOc1cc(CCCN2CCc3cc(OC)c(OC)cc3C2)ccc1NC(=O)c1cccc2c(=O)c3cccc(OC)c3[nH]c12` is higher in melting point: 86 to 105 °C for the first, 198 °C for the second.

Compared with `CCCCCCCC(=O)N(C)Cc1cccc(-c2ccc(C=CC(=O)O)cc2)c1`, `CCCc1c(C(=O)NCc2ccc3cc(OCC(=O)OC)ccc3c2)cnn1-c1ccccc1` is higher in melting point: 124 to 125 °C for the first, 145 to 146 °C for the second.

Compared with `CCSC1(SCC)CCC2C3CCC4=CC(=O)C=CC4(C)C3C(O)CC21C` (configuration not stated), `CC(C)c1ccc2c(c1)CCC1C(C)(C(=O)O)CCCC21C` (configuration not stated) is higher in melting point: 163 to 165 °C for the first, 168 to 170 °C for the second.

Compared with `Cc1nc2c(c3c1[nH]c1ccc(Cl)cc13)C(=O)CC(C)(C)C2`, `O=C1NCc2c1c(O)nc1ccccc21` is higher in melting point: 244 to 246 °C for the first, 340 to 350 °C for the second.

First: COc1cc(OC)nc(NC(=O)NS(=O)(=O)c2cc(Br)cc3c2OS(=O)(=O)C=C3)n1
Second: COc1ccc(S(=O)(=O)Nc2cccnc2Nc2ccc(OC)nc2)cc1
The melting point of the first is higher: 204 to 209 °C for the first, 159 to 160 °C for the second.

First: CNC(=O)Nc1cc(C#N)ccn1
Second: Cc1cccc(CNC(=O)CC#N)c1
The melting point of the first is higher: 203 to 204 °C for the first, 110 to 112 °C for the second.

First: Cn1c(COc2ccc(CC3SC(=O)N(C(c4ccccc4)(c4ccccc4)c4ccccc4)C3=O)cc2)nc2ccc(OCc3ccccc3)nc21 (configuration not stated)
Second: O=c1ccc(-c2c(-c3ccccc3)nn3ccccc23)nn1-c1ccccc1
The melting point of the first is lower: 88 to 92 °C for the first, 170 °C for the second.

First: O=C(O)c1c(F)cc(F)c(F)c1C(=O)O
Second: O=C(O)c1cn(C2CC2)c2c(F)c(N3CC(N4CCCC4)C3)c(F)cc2c1=O
The melting point of the first is lower: 153 to 155 °C for the first, 224 to 227 °C for the second.

First: CC(C)(C)OC(=O)NCCc1ccc(N)cc1
Second: CC(C)(C)OC(=O)NCc1nc(C(=O)ON2C(=O)CCC2=O)cs1
The melting point of the first is lower: 71 to 73 °C for the first, 171 °C for the second.

First: O=C(Nc1ccc2c(c1)C(=O)NC2=O)C(=O)N1CCC(Cc2ccc(F)cc2)CC1
Second: CN1CCC(c2c[nH]c(-c3ccc(F)cc3)c2-c2ccncc2)=CC1Cc1ccccc1 (configuration not stated)
The melting point of the first is higher: 226 to 228 °C for the first, 198 to 200 °C for the second.

Compared with `CSC(=S)NN=Cc1nc[nH]c1C`, `CNc1ccc2[nH]ccc2c1` is lower in melting point: 180 °C for the first, 113 to 114 °C for the second.

Compared with `CC(C)n1nc(O)nc1N(C)C`, `CON(C)C(=O)c1cc2n(n1)CCC2` is lower in melting point: 111 to 112 °C for the first, 45 to 50 °C for the second.

First: COc1ccc(C=C(NC(C)=O)C(=O)O)cc1OC
Second: COC(=O)C#CC(=O)c1cccc(Cl)c1
The melting point of the first is higher: 212 to 214 °C for the first, 73 to 75 °C for the second.

`CCNc1nc(Cl)nc(Nc2ccc(OC)cc2)n1` and `Clc1ccc(Nc2ccnc(-c3cccc(Cl)n3)n2)cc1` fall in the same range of melting point: 174 to 176 °C for the first, 174 to 176 °C for the second.

Compared with `COC(=O)C=C1C(=O)N(C)C(=O)N1C`, `COC(=O)C1=C(O)c2cc(Cl)ccc2S(=O)(=O)N1C` is higher in melting point: 49.5 °C for the first, 201 °C for the second.

First: Clc1cccc2c3c([nH]c12)-c1ccccc1C3
Second: CC(=O)Nn1c2c(c3ccccc31)Cc1ccccc1-2
The melting point of the first is lower: 139 °C for the first, > 240 °C for the second.

First: COc1ccnc(Cl)c1N
Second: NS(=O)(=O)c1ncccc1S
The melting point of the first is lower: 86 to 87 °C for the first, 102 to 104 °C for the second.

First: CCSC(C)(C)C(=O)CC(=O)Nc1cc(NC(=O)CCCOc2ccc(C(C)(C)CC)cc2C(C)(C)CC)ccc1Cl
Second: CCOc1c(/C=C\CO)cc(C(C)(C)C)cc1C(C)(C)C
The melting point of the first is higher: 121 to 122 °C for the first, 93 to 94 °C for the second.

First: COCOc1ccc(C(=O)Cn2c(-c3nonc3N)nc3ccccc32)cc1OC
Second: CCOC(=O)c1ccc(-c2ccnc(Nc3cc(OC)c(OC)c(OC)c3)n2)cc1
The melting point of the first is higher: 190 °C for the first, 181 to 182 °C for the second.

First: N#Cc1cnn(-c2nc(Cl)c(C(F)(F)F)cc2Cl)c1Br
Second: C[Si](C)(C)C#Cc1cnn2c(C(F)(F)F)cc(-c3ccc(C(F)(F)F)cc3)nc12
The melting point of the first is lower: 121 to 122 °C for the first, 136 °C for the second.

First: CCCOC1(OC)C=CC=C(N2CCC(c3noc4cc(F)ccc34)CC2)C1O (configuration not stated)
Second: C[C@H]1CCC[C@@](O)(CNC(=O)c2c(Cl)ccc3nc(N4CC[C@H](O)C4)ccc23)C1
The melting point of the first is lower: 134 to 135 °C for the first, 222 °C for the second.

First: CC1Cc2cc3c(cc2C(c2ccc([N+](=O)[O-])cc2)=NN1C(=O)CCl)OCO3 (configuration not stated)
Second: O=C(C=Cc1ccc2c(c1)OCO2)C1C(=O)CCC1=O
The melting point of the first is lower: 158 to 160 °C for the first, 181 to 182 °C for the second.

Compared with `Cc1ccc(C(=O)c2cc(Br)c(CC(=O)O)n2C)cc1`, `Nc1ccc(C(=O)c2ccncc2)cc1[N+](=O)[O-]` is higher in melting point: 162 to 164 °C for the first, 294 to 295 °C for the second.

Compared with `CC(Br)(CBr)CS(=O)(=O)Oc1c(Cl)cccc1Cl` (configuration not stated), `O=S(=O)(Cl)Cc1csc(-c2ccc(Cl)c(Cl)c2)n1` is higher in melting point: 74 to 76 °C for the first, 124 to 127 °C for the second.

First: C=CCN(c1ncnc2c1ncn2C1OC(CO)C(O)C1O)C1CCCCC1 (configuration not stated)
Second: CN(C)C(=O)C(C1CCCCC1)n1ccc(-c2ccccc2)n1 (configuration not stated)
The melting point of the first is higher: 123 to 125 °C for the first, 87.5 to 90 °C for the second.

First: NS(=O)(=O)c1cc2c(cc1Cl)NC(c1ccccc1)NS2(=O)=O (configuration not stated)
Second: CC(C)CN1C(=O)CCC(c2ccccc2Cl)c2ccccc21 (configuration not stated)
The melting point of the first is higher: 235 to 238 °C for the first, 139 to 140 °C for the second.

First: OC(Cn1cncn1)(c1ccc(Cl)cc1)C1(n2cncn2)CC1 (configuration not stated)
Second: CC(=O)OC(C(Oc1ccc(Cl)cc1)n1cncn1)C(C)(C)CCl (configuration not stated)
The melting point of the first is higher: 208 °C for the first, 111 to 117 °C for the second.

First: N=C(N)c1ccc(N2CCN(c3ccc(SCC(=O)O)cc3)C2=O)cc1
Second: CCOC(=O)c1ccc2occ(-c3ccc(SC)cc3)c2n1
The melting point of the first is higher: > 275 °C for the first, 88 to 89 °C for the second.

First: CN1CC2C3C=CC(C3)C2(c2cccc(O)c2)C1 (configuration not stated)
Second: CC(=O)NNCC1CC2c3cccc4[nH]cc(c34)CC2N(C)C1 (configuration not stated)
The melting point of the first is lower: 129 to 136 °C for the first, 213 to 215 °C for the second.

Compared with `COC[C@](C#N)(C(=O)OC)[C@H](c1ccccc1OC)c1cccc2ccccc12`, `COC(=O)Cn1c(CCc2ccccc2)ccc(NC(=O)OCc2ccccc2)c1=O` is lower in melting point: 148 to 151 °C for the first, 102 to 104 °C for the second.

First: O=C1c2ccccc2C(=O)N1Oc1ccc(-c2nc(=O)c3ccccc3s2)cn1
Second: CC(=NNc1ccccc1)c1c(-c2ccccc2)noc1C
The melting point of the first is higher: 212 to 213 °C for the first, 129 to 133 °C for the second.

First: O=CN1CCc2cc(O)ccc2C1
Second: O=C(O)c1cn(Cc2c(F)cccc2Cl)nn1
The melting point of the first is lower: 186 °C for the first, 274 to 276 °C for the second.

Compared with `COc1cc2cc(c1Cl)N(C)C(=O)CC(O)C1(C)OC1C(C)C1CC(O)(NC(=O)O1)C(OC)C=CC=C(C)C2` (configuration not stated), `CN1C(=O)CC(=O)N(c2ccccc2)C1=O` is lower in melting point: 174 °C for the first, 124 °C for the second.

Compared with `Cc1cc(CC(C)(C)CO)cc(C)c1O`, `CCOC(=O)C(Cc1ccc(NC(C)=O)c([N+](=O)[O-])c1)(NC(C)=O)C(=O)OCC` is higher in melting point: 133 to 134 °C for the first, 172 °C for the second.

First: NC(=O)CC(CC(N)=O)c1ccccc1Br
Second: CC(=O)N1CCC(OC(CO)c2ccccc2)CC1 (configuration not stated)
The melting point of the first is higher: 168 to 170 °C for the first, 92 to 94 °C for the second.

First: Cc1cc(-c2nnc3c4ccccc4c(OCc4cn(C)cn4)nn23)no1
Second: Cc1c(O)nc2sc(SCc3ccccc3)nn2c1=O
The melting point of the first is lower: 208 to 209 °C for the first, 247 to 250 °C for the second.

First: CC(C#N)c1ccc2oc(=S)[nH]c2c1 (configuration not stated)
Second: CS(=O)(=O)c1ccc(C(CC2CCCC2)C(=O)Nc2nccs2)cc1Br (configuration not stated)
The melting point of the first is higher: 173 to 176 °C for the first, 106 to 107 °C for the second.

First: CNC(=O)CCc1cn(Cc2ccc(C(=O)NS(=O)(=O)c3ccccc3C)cc2OC)c2cc(C(=O)NCC3CCCC3)ccc12
Second: CC(C)(C)c1ccc(CCC(=O)CCC2CCCCCC2)cc1NC(=O)CC1c2ccccc2Oc2ccccc21
The melting point of the first is higher: 211 to 212 °C for the first, 136 to 137 °C for the second.

First: CCOC(=O)c1cc(CCc2cc3c(s2)-n2c(C)nnc2CN=C3c2ccccc2Cl)ccc1CC(=O)Nc1cccc(/C=C/c2nc(C3CCC3)cs2)c1
Second: CCOC(=O)C1=C(C)NC(C)=C(C(=O)OCCN2CCN(C(c3ccccc3)c3ccccc3)CC2)C1c1cccc([N+](=O)[O-])c1 (configuration not stated)
The melting point of the first is higher: 118 to 120 °C for the first, 80 to 82 °C for the second.

`CC1CNc2cccc3c(=O)c(C(=O)O)cn1c23` (configuration not stated) and `CN1Cc2c(C(N)=O)ncn2-c2cccc(Cl)c2C1=O` cannot be ordered by melting point: > 250 °C for the first, > 250 °C for the second.

First: CCCCc1nc2c(N)nc3ccccc3c2n1CCCCS(=O)(=O)c1ccc(F)cc1F
Second: CCCc1c(OCCCCCOc2ccc3nc(CCC(=O)OCC)ccc3c2CCC(=O)OCC)ccc2c1OCCC2=O
The melting point of the first is higher: 190 to 193 °C for the first, 59 to 61 °C for the second.

First: NC(=O)COc1ccc(CN2C(=O)C3(COc4cc5c(cc43)CCO5)c3ccccc32)cc1 (configuration not stated)
Second: O=C(O)COc1ccc(SCc2ccc(OCc3ccc(F)c(C(F)(F)F)c3)cc2)c2c1CCC2
The melting point of the first is higher: 215 to 216 °C for the first, 116 to 117 °C for the second.

First: CCCC(CCC)c1nc(-c2ccncc2)c(-c2ccc(Cl)cc2)n1CC
Second: Cc1c(C)c(C)c(S(=O)(=O)NCCc2ccc(C(=CCCCC(=O)O)c3cccnc3)cc2)c(C)c1C
The melting point of the first is lower: 152 to 155 °C for the first, 158 to 160 °C for the second.

Compared with `CC(C)(c1ccc(O)cc1)c1ccc(-c2ccc(C(C)(C)c3ccc(O)cc3)cc2)cc1`, `Cc1nc(N)nc(N)c1C#CC(C)(C)c1ccc(C(F)(F)F)cc1` is lower in melting point: 195 to 196 °C for the first, 153 to 157 °C for the second.

First: CC#CCn1nnc2cc3c(=O)n(C(C)Cn4ncnn4)nnc3cc2c1=O (configuration not stated)
Second: C#CCNc1nc2cc3ccccc3cc2nc1Cl
The melting point of the first is lower: 132 to 134 °C for the first, 169 to 172 °C for the second.

First: CC(C#N)CCC(=O)O (configuration not stated)
Second: COC(=O)CCN1C[C@H]2Cc3ccccc3[C@H](c3ccccc3)[C@H]2C1 (racemic)
The melting point of the first is lower: 31.9 to 32.6 °C for the first, 75 to 76 °C for the second.

First: CNC1=NS(=O)N=C1NCCS (configuration not stated)
Second: COC(=O)C1Sc2cc(OCc3ccccc3)ccc2OCC1=O (configuration not stated)
The melting point of the first is higher: 191 to 193 °C for the first, 101 to 102 °C for the second.

Compared with `COc1cc(Nc2nccc(Oc3ccccc3)n2)cc(OC)c1OC`, `CCCCCCCCCCCCCCOCC(CI)(CI)COCCCCCCCCCCCCCC` is lower in melting point: 149 °C for the first, 27 to 28 °C for the second.
